Measured values: PubChem BioAssay (NCI)
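Compound exposure: 48 hours, 5 concentrations, 96-well plates. GI50: concentration for 50% inhibition of growth. TGI is the concentration that stops growth completely.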

Tests used:
Experiment in all cases: NCI-60 cell line screen, 48 h
SNB-75 CNS = test system: SNB-75 CNS
K-562 leukemia = test system: K-562 leukemia
UO-31 renal = test system: UO-31 renal
SNB-19 CNS = test system: SNB-19 CNS
786-0 renal = test system: 786-0 renal
CAKI-1 renal = test system: CAKI-1 renal
A549 NSCLC = test system: A549 NSCLC
MOLT-4 leukemia = test system: MOLT-4 leukemia
LOX IMVI melanoma = test system: LOX IMVI melanoma
SN12C renal = test system: SN12C renal
MDA-MB-435 = test system: MDA-MB-435
SK-MEL-2 melanoma = test system: SK-MEL-2 melanoma
PC-3 prostate = test system: PC-3 prostate
CCRF-CEM leukemia = test system: CCRF-CEM leukemia
KM12 colon = test system: KM12 colon
EKVX NSCLC = test system: EKVX NSCLC
RPMI-8226 leukemia = test system: RPMI-8226 leukemia
SK-MEL-28 melanoma = test system: SK-MEL-28 melanoma
SR leukemia = test system: SR leukemia
M14 melanoma = test system: M14 melanoma
IGROV1 ovarian = test system: IGROV1 ovarian
NCI/ADR-RES ovarian = test system: NCI/ADR-RES ovarian
SF-539 CNS = test system: SF-539 CNS
MCF7 breast = test system: MCF7 breast
ACHN renal = test system: ACHN renal
BT-549 breast = test system: BT-549 breast
U251 CNS = test system: U251 CNS
MDA-MB-231 breast = test system: MDA-MB-231 breast
COLO 205 colon = test system: COLO 205 colon
OVCAR-3 ovarian = test system: OVCAR-3 ovarian
HCT-116 colon = test system: HCT-116 colon
TK-10 renal = test system: TK-10 renal
A498 renal = test system: A498 renal
T-47D breast = test system: T-47D breast
HS 578T breast = test system: HS 578T breast
HOP-62 NSCLC = test system: HOP-62 NSCLC
HT29 colon = test system: HT29 colon
SF-268 CNS = test system: SF-268 CNS
MALME-3M melanoma = test system: MALME-3M melanoma
HL-60(TB) leukemia = test system: HL-60(TB) leukemia
HCT-15 colon = test system: HCT-15 colon
UACC-62 melanoma = test system: UACC-62 melanoma
OVCAR-5 ovarian = test system: OVCAR-5 ovarian
HCC-2998 colon = test system: HCC-2998 colon
SF-295 CNS = test system: SF-295 CNS
OVCAR-4 ovarian = test system: OVCAR-4 ovarian
NCI-H522 lung = test system: NCI-H522 lung
DU-145 prostate = test system: DU-145 prostate
OVCAR-8 ovarian = test system: OVCAR-8 ovarian
UACC-257 melanoma = test system: UACC-257 melanoma
NCI-H23 lung = test system: NCI-H23 lung
RXF 393 renal = test system: RXF 393 renal
SK-OV-3 ovarian = test system: SK-OV-3 ovarian
HOP-92 NSCLC = test system: HOP-92 NSCLC
NCI-H460 lung = test system: NCI-H460 lung
SW-620 colon = test system: SW-620 colon
MDA-MB-468 breast = test system: MDA-MB-468 breast
SK-MEL-5 melanoma = test system: SK-MEL-5 melanoma
NCI-H226 lung = test system: NCI-H226 lung

SMILES: O=C(CNc1nc(-c2ccccc2)cs1)Nc1ccc([N+](=O)[O-])cc1
- GI50 (SNB-75 CNS): 3.16 µM
- TGI (SNB-75 CNS): 15.5 µM
- GI50 (K-562 leukemia): 3.26 µM
- TGI (K-562 leukemia): > 100 µM
- GI50 (UO-31 renal): 4.58 µM
- TGI (UO-31 renal): 18.1 µM
- GI50 (SNB-19 CNS): 10.7 µM
- TGI (SNB-19 CNS): 22.5 µM
- GI50 (786-0 renal): 4.1 µM
- TGI (786-0 renal): 14.1 µM
- GI50 (CAKI-1 renal): 5.26 µM
- TGI (CAKI-1 renal): 18.3 µM
- GI50 (A549 NSCLC): 9.71 µM
- TGI (A549 NSCLC): 24.4 µM
- GI50 (MOLT-4 leukemia): 3.66 µM
- TGI (MOLT-4 leukemia): 23 µM
- GI50 (LOX IMVI melanoma): 2.2 µM
- TGI (LOX IMVI melanoma): 11.1 µM
- GI50 (SN12C renal): 3.37 µM
- TGI (SN12C renal): 13.6 µM
- GI50 (MDA-MB-435): 6.79 µM
- TGI (MDA-MB-435): 19.2 µM
- GI50 (SK-MEL-2 melanoma): 14.2 µM
- TGI (SK-MEL-2 melanoma): 30.5 µM
- GI50 (PC-3 prostate): 4.75 µM
- TGI (PC-3 prostate): 23.2 µM
- GI50 (CCRF-CEM leukemia): 2.71 µM
- TGI (CCRF-CEM leukemia): 13.4 µM
- GI50 (KM12 colon): 8.27 µM
- TGI (KM12 colon): 20.7 µM
- GI50 (EKVX NSCLC): 3.8 µM
- TGI (EKVX NSCLC): 14.6 µM
- GI50 (RPMI-8226 leukemia): 3.25 µM
- TGI (RPMI-8226 leukemia): 19.8 µM
- GI50 (SK-MEL-28 melanoma): 10.3 µM
- TGI (SK-MEL-28 melanoma): 21.9 µM
- GI50 (SR leukemia): 6.62 µM
- TGI (SR leukemia): 41.3 µM
- GI50 (M14 melanoma): 5.07 µM
- TGI (M14 melanoma): 19.7 µM
- GI50 (IGROV1 ovarian): 3.84 µM
- TGI (IGROV1 ovarian): 16 µM
- GI50 (NCI/ADR-RES ovarian): 3.77 µM
- TGI (NCI/ADR-RES ovarian): 20.4 µM
- GI50 (SF-539 CNS): 3.19 µM
- TGI (SF-539 CNS): 10.2 µM
- GI50 (MCF7 breast): 2.9 µM
- TGI (MCF7 breast): 12.1 µM
- GI50 (ACHN renal): 2.39 µM
- TGI (ACHN renal): 6.98 µM
- GI50 (BT-549 breast): 2.35 µM
- TGI (BT-549 breast): 10.1 µM
- GI50 (U251 CNS): 2.85 µM
- TGI (U251 CNS): 11.1 µM
- GI50 (MDA-MB-231 breast): 3.07 µM
- TGI (MDA-MB-231 breast): 12.5 µM
- GI50 (COLO 205 colon): 4.59 µM
- TGI (COLO 205 colon): 15.9 µM
- GI50 (OVCAR-3 ovarian): 3.65 µM
- TGI (OVCAR-3 ovarian): 13.3 µM
- GI50 (HCT-116 colon): 3.22 µM
- TGI (HCT-116 colon): 14.2 µM
- GI50 (TK-10 renal): 11.1 µM
- TGI (TK-10 renal): 24.2 µM
- GI50 (A498 renal): 16.9 µM
- TGI (A498 renal): 32.3 µM
- GI50 (T-47D breast): 4.23 µM
- TGI (T-47D breast): 21.3 µM
- GI50 (HS 578T breast): 10.2 µM
- TGI (HS 578T breast): > 100 µM
- GI50 (HOP-62 NSCLC): 14.4 µM
- TGI (HOP-62 NSCLC): 35 µM
- GI50 (HT29 colon): 3.73 µM
- TGI (HT29 colon): 15.8 µM
- GI50 (SF-268 CNS): 4.82 µM
- TGI (SF-268 CNS): 29.5 µM
- GI50 (MALME-3M melanoma): 2.29 µM
- TGI (MALME-3M melanoma): 6.21 µM
- GI50 (HL-60(TB) leukemia): 2.97 µM
- TGI (HL-60(TB) leukemia): 10.6 µM
- GI50 (HCT-15 colon): 3.47 µM
- TGI (HCT-15 colon): 13.1 µM
- GI50 (UACC-62 melanoma): 4.41 µM
- TGI (UACC-62 melanoma): 17 µM
- GI50 (OVCAR-5 ovarian): 7.22 µM
- TGI (OVCAR-5 ovarian): 20.1 µM
- GI50 (HCC-2998 colon): 3.5 µM
- TGI (HCC-2998 colon): 12.9 µM
- GI50 (SF-295 CNS): 8.63 µM
- TGI (SF-295 CNS): 21.6 µM
- GI50 (OVCAR-4 ovarian): 3.52 µM
- TGI (OVCAR-4 ovarian): 12.8 µM
- GI50 (NCI-H522 lung): 1.9 µM
- TGI (NCI-H522 lung): 3.92 µM
- GI50 (DU-145 prostate): 10.9 µM
- TGI (DU-145 prostate): 25.4 µM
- GI50 (OVCAR-8 ovarian): 11.1 µM
- TGI (OVCAR-8 ovarian): 28.2 µM
- GI50 (UACC-257 melanoma): 8.41 µM
- TGI (UACC-257 melanoma): 21.8 µM
- GI50 (NCI-H23 lung): 3.32 µM
- TGI (NCI-H23 lung): 13.7 µM
- GI50 (RXF 393 renal): 2.77 µM
- GI50 (SK-OV-3 ovarian): 16.4 µM
- TGI (SK-OV-3 ovarian): 40.1 µM
- GI50 (HOP-92 NSCLC): 6.65 µM
- TGI (HOP-92 NSCLC): 25.1 µM
- GI50 (NCI-H460 lung): 10.2 µM
- TGI (NCI-H460 lung): 23.8 µM
- GI50 (SW-620 colon): 5.01 µM
- TGI (SW-620 colon): 18 µM
- GI50 (MDA-MB-468 breast): 1.55 µM
- TGI (MDA-MB-468 breast): 3.16 µM
- GI50 (SK-MEL-5 melanoma): 5.82 µM
- TGI (SK-MEL-5 melanoma): 18.6 µM
- GI50 (NCI-H226 lung): 12.5 µM
- TGI (NCI-H226 lung): 28.3 µM
